Assay [1] concerns the target β-2-microglobulin (β2m). The settings on record: read-out: Kd for Cu(II) bound to β2m, cited from earlier work.
Assay [2] addresses β-2-microglobulin (β2m). As to conditions: read-out: EGCG-β2m Kd; from size exclusion chromatography data; cited from earlier work.
Assay [3] concerns the target Cu(II)-β2m (β-2-microglobulin) (Homo sapiens, UniProt P61769). Nature of the assay: CL-MS ligand titration of Cu. The assay is classed as binding. The settings on record: read-out: Cu(II)-β2m and EGCG Kd; DEPC (120 μM) labeling of the N-terminal amine; 30 μM β2m, 60 μM Cu(II); triplicate.

Like-named read-outs stand apart in the source and are kept apart here.

Sequence of Cu(II)-β2m (β-2-microglobulin) (P61769 21-119): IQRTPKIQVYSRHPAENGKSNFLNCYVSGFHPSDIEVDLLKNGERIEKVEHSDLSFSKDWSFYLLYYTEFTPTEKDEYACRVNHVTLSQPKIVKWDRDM

`O=S(=O)([O-])[O-].[Cu+2]` [Cu(II), copper sulfate]: the equilibrium dissociation constant (Kd) on β-2-microglobulin (β2m) [1] (in the presence of EGCG) was 49 µM; at β-2-microglobulin (β2m) [1] (without EGCG) it was 3 µM.
Regarding `O=C(O[C@@H]1Cc2c(O)cc(O)cc2O[C@@H]1c1cc(O)c(O)c(O)c1)c1cc(O)c(O)c(O)c1` [EGCG, epigallocatechin gallate], the figures for the equilibrium dissociation constant (Kd) (at β-2-microglobulin (β2m) [2]; in assay [3]) were 6 µM and 12 ± 5 µM, respectively.

The term Kd denotes the free concentration of one partner at which half of the binding sites on the other are occupied at equilibrium, for simple one-to-one binding.

The values are drawn from paper PMC7332385 (Journal of the American Society for Mass Spectrometry, 2020).
